Assay results reported in the NIST ThermoML archive (doi:10.1021/je060339m).

Conditions: Liquid

CCCOC(C)=O [propyl ethanoate]
Conditions | mass density [kg/m3]
298.15 K, 100 kPa | 882
298.15 K, 1000 kPa | 882.5
298.15 K, 2000 kPa | 883.4
298.15 K, 3000 kPa | 884.3
298.15 K, 3300 kPa | 884.6
298.15 K, 5000 kPa | 886.4
298.15 K, 10000 kPa | 890.7
298.15 K, 15000 kPa | 894.8
298.15 K, 20000 kPa | 898.7
298.15 K, 25000 kPa | 902.5
298.15 K, 30000 kPa | 906.9
298.15 K, 35000 kPa | 911.7
303.15 K, 100 kPa | 876.2
303.15 K, 1000 kPa | 876.8
303.15 K, 2000 kPa | 877.7
303.15 K, 3000 kPa | 878.8
303.15 K, 3300 kPa | 879
303.15 K, 5000 kPa | 880.8
303.15 K, 10000 kPa | 885.3
303.15 K, 15000 kPa | 889.5
303.15 K, 20000 kPa | 893.5
303.15 K, 25000 kPa | 897.4
303.15 K, 30000 kPa | 902
303.15 K, 35000 kPa | 906.9
308.15 K, 100 kPa | 870.5
308.15 K, 1000 kPa | 871.2
308.15 K, 2000 kPa | 872.2
308.15 K, 3000 kPa | 873.2
308.15 K, 3300 kPa | 873.4
308.15 K, 5000 kPa | 875.3
308.15 K, 10000 kPa | 879.9
308.15 K, 15000 kPa | 884.3
308.15 K, 20000 kPa | 888.4
308.15 K, 25000 kPa | 892.4
308.15 K, 30000 kPa | 897.2
308.15 K, 35000 kPa | 902.3
313.15 K, 100 kPa | 864.9
313.15 K, 1000 kPa | 865.5
313.15 K, 2000 kPa | 866.6
313.15 K, 3000 kPa | 867.6
313.15 K, 3300 kPa | 867.9
313.15 K, 5000 kPa | 869.9
313.15 K, 10000 kPa | 874.7
313.15 K, 15000 kPa | 879.2
313.15 K, 20000 kPa | 883.5
313.15 K, 25000 kPa | 887.6
313.15 K, 30000 kPa | 892.6
313.15 K, 35000 kPa | 897.7
318.15 K, 100 kPa | 859.3
318.15 K, 1000 kPa | 859.8
318.15 K, 2000 kPa | 860.9
318.15 K, 3000 kPa | 862.1
318.15 K, 3300 kPa | 862.4
318.15 K, 5000 kPa | 864.4
318.15 K, 10000 kPa | 869.4
318.15 K, 15000 kPa | 874.1
318.15 K, 20000 kPa | 878.5
318.15 K, 25000 kPa | 882.8
318.15 K, 30000 kPa | 887.9
318.15 K, 35000 kPa | 893.2
323.15 K, 100 kPa | 853.6
323.15 K, 1000 kPa | 854.8
323.15 K, 2000 kPa | 855.8
323.15 K, 3000 kPa | 856.9
323.15 K, 3300 kPa | 857.1
323.15 K, 5000 kPa | 859
323.15 K, 10000 kPa | 864.1
323.15 K, 15000 kPa | 869
323.15 K, 20000 kPa | 873.5
323.15 K, 25000 kPa | 877.9
323.15 K, 30000 kPa | 883.2
323.15 K, 35000 kPa | 888.8
328.15 K, 100 kPa | 848
328.15 K, 1000 kPa | 848.7
328.15 K, 2000 kPa | 849.9
328.15 K, 3000 kPa | 851
328.15 K, 3300 kPa | 851.3
328.15 K, 5000 kPa | 853.7
328.15 K, 10000 kPa | 859
328.15 K, 15000 kPa | 864
328.15 K, 20000 kPa | 868.7
328.15 K, 25000 kPa | 873.3
328.15 K, 30000 kPa | 878.8
328.15 K, 35000 kPa | 884.4
333.15 K, 100 kPa | 842.5
333.15 K, 1000 kPa | 843.6
333.15 K, 2000 kPa | 844.8
333.15 K, 3000 kPa | 845.9
333.15 K, 3300 kPa | 846.2
333.15 K, 5000 kPa | 848.3
333.15 K, 10000 kPa | 853.9
333.15 K, 15000 kPa | 859
333.15 K, 20000 kPa | 863.9
333.15 K, 25000 kPa | 868.6
333.15 K, 30000 kPa | 874.3
333.15 K, 35000 kPa | 880.1
338.15 K, 100 kPa | 836.7
338.15 K, 1000 kPa | 838
338.15 K, 2000 kPa | 839.2
338.15 K, 3000 kPa | 840.5
338.15 K, 3300 kPa | 840.8
338.15 K, 5000 kPa | 842.8
338.15 K, 10000 kPa | 848.6
338.15 K, 15000 kPa | 853.9
338.15 K, 20000 kPa | 859
338.15 K, 25000 kPa | 863.8
338.15 K, 30000 kPa | 869.6
338.15 K, 35000 kPa | 875.5
343.15 K, 100 kPa | 831.2
343.15 K, 1000 kPa | 832.3
343.15 K, 2000 kPa | 833.7
343.15 K, 3000 kPa | 834.9
343.15 K, 3300 kPa | 835.3
343.15 K, 5000 kPa | 837.6
343.15 K, 10000 kPa | 843.6
343.15 K, 15000 kPa | 849.1
343.15 K, 20000 kPa | 854.3
343.15 K, 25000 kPa | 859.2
343.15 K, 30000 kPa | 865
343.15 K, 35000 kPa | 871.2
348.15 K, 100 kPa | 825.6
348.15 K, 1000 kPa | 826.8
348.15 K, 2000 kPa | 828.1
348.15 K, 3000 kPa | 829.5
348.15 K, 3300 kPa | 829.9
348.15 K, 5000 kPa | 832.2
348.15 K, 10000 kPa | 838.3
348.15 K, 15000 kPa | 844.1
348.15 K, 20000 kPa | 849.5
348.15 K, 25000 kPa | 854.5
348.15 K, 30000 kPa | 860.6
348.15 K, 35000 kPa | 866.8
353.15 K, 100 kPa | 820
353.15 K, 1000 kPa | 821.2
353.15 K, 2000 kPa | 822.6
353.15 K, 3000 kPa | 824
353.15 K, 3300 kPa | 824.4
353.15 K, 5000 kPa | 826.9
353.15 K, 10000 kPa | 833.3
353.15 K, 15000 kPa | 838.8
353.15 K, 20000 kPa | 844.8
353.15 K, 25000 kPa | 850
353.15 K, 30000 kPa | 856.4
353.15 K, 35000 kPa | 862.7
358.15 K, 100 kPa | 811.6
358.15 K, 1000 kPa | 812.9
358.15 K, 2000 kPa | 814.4
358.15 K, 3000 kPa | 815.8
358.15 K, 3300 kPa | 816.3
358.15 K, 5000 kPa | 818.6
358.15 K, 10000 kPa | 825.3
358.15 K, 15000 kPa | 831.5
358.15 K, 20000 kPa | 837.2
358.15 K, 25000 kPa | 842.8
363.15 K, 100 kPa | 804.8
363.15 K, 1000 kPa | 806.9
363.15 K, 2000 kPa | 808.4
363.15 K, 3000 kPa | 810
363.15 K, 3300 kPa | 810.4
363.15 K, 5000 kPa | 812.9
363.15 K, 10000 kPa | 819.9
363.15 K, 15000 kPa | 826.2
363.15 K, 20000 kPa | 832.1
363.15 K, 25000 kPa | 837.7
363.15 K, 30000 kPa | 844.4
368.15 K, 1000 kPa | 801
368.15 K, 2000 kPa | 802.7
368.15 K, 3000 kPa | 804.3
368.15 K, 3300 kPa | 804.8
368.15 K, 5000 kPa | 807.4
368.15 K, 10000 kPa | 814.6
368.15 K, 15000 kPa | 821.2
368.15 K, 20000 kPa | 827.3
368.15 K, 25000 kPa | 833.1
373.15 K, 1000 kPa | 795.5
373.15 K, 2000 kPa | 797.2
373.15 K, 3000 kPa | 798.9
373.15 K, 3300 kPa | 799.5
373.15 K, 5000 kPa | 802.3
373.15 K, 10000 kPa | 809.8
373.15 K, 15000 kPa | 816.6
373.15 K, 20000 kPa | 822.9
373.15 K, 25000 kPa | 828.9
378.15 K, 1000 kPa | 789.4
378.15 K, 2000 kPa | 791.3
378.15 K, 3000 kPa | 793
378.15 K, 3300 kPa | 793.6
378.15 K, 5000 kPa | 796.3
378.15 K, 10000 kPa | 803.3
378.15 K, 15000 kPa | 811.3
378.15 K, 20000 kPa | 817.7
378.15 K, 25000 kPa | 824
378.15 K, 30000 kPa | 831.2
383.15 K, 1000 kPa | 783.6
383.15 K, 2000 kPa | 785.5
383.15 K, 3000 kPa | 787.3
383.15 K, 3300 kPa | 788.2
383.15 K, 5000 kPa | 791.2
383.15 K, 10000 kPa | 799.2
383.15 K, 15000 kPa | 806.6
383.15 K, 20000 kPa | 813.2
383.15 K, 25000 kPa | 819.7
388.15 K, 1000 kPa | 777.9
388.15 K, 2000 kPa | 779.8
388.15 K, 3000 kPa | 781.6
388.15 K, 3300 kPa | 782.1
388.15 K, 5000 kPa | 785.4
388.15 K, 10000 kPa | 793.8
388.15 K, 15000 kPa | 801.5
388.15 K, 20000 kPa | 808.5
388.15 K, 25000 kPa | 815.2
388.15 K, 30000 kPa | 823.2
393.15 K, 1000 kPa | 771.8
393.15 K, 2000 kPa | 773.9
393.15 K, 3000 kPa | 775.9
393.15 K, 3300 kPa | 776.4
393.15 K, 5000 kPa | 779.7
393.15 K, 10000 kPa | 788.6
393.15 K, 15000 kPa | 796.5
393.15 K, 20000 kPa | 803.8
393.15 K, 25000 kPa | 810.7
